Source: US10363239B2, “Method for inhibiting growth of cancer cells” (Pain Therapeutics, Inc., priority 2013, dated 2019)
Like-named read-outs stand apart in the source and are kept apart here.

Columns and labels:
[1] = molecular target: FLNA pentapeptide of SEQ ID NO: 1 (Bn-VAKGL) (Homo sapiens, UniProt P21333); assay: FITC-NLX-based FLNA screening assay (inhibition of FITC-naloxone binding to Bn-VAKGL on streptavidin plates); conditions: 10 nM FITC-NLX
[2] = test system: non-small cell lung cancer cell lines; assay: Glucose utilization; type: cell-based, human; conditions: data not shown
Procedure: (§1) To determine the effect of Compound C0105 on glucose utilization, the cancer and primary normal cells were plated extremely thinly (10%). Once cells attached, Compound C0105 was added at 0.1, 0.5, 1 or 5 nM in the medium twice daily (6 hours apart) for 4 days. The cells were serum-deprived (glucose deprived) for 2 hours. Cells were then rinsed with 1 ml PBS and glucose uptake was assessed by contacting the cells with [^3H]glucose (0.01 uCi/l ml) in Kreb's Ringer for 2 hours. Cells were then rinsed with 1 ml PBS 3 times, scraped off and their glucose content counted by liquid scintillation spectrophotometry.
. Primary lung fibroblast cells were used as control, non-cancerous cells to illustrate the difference in effects observed (FIG. 1C, FIGS. 1H-1I).

[3] = test system: primary lung fibroblasts; assay: [3H]glucose uptake; type: cell-based, human; conditions: C0105 0.1-5 nM, other compounds 1 or 5 nM; 4 days
Procedure: as §1, with “FIG. 1A through FIG. 1M illustrate the effects of various FLNA-binding compounds on glucose uptake in glioblastoma, melanoma, breast and pancreatic cancer cell lines, along with appropriate non-cancerous primary cell controls. Cells were grown in the absence or presence of 0.1-5 nM indicated compounds for 4 days. Following brief washes with PBS, cells were serum-deprived for 4 hours and then incubated in oxygenated Kreb's Ringer containing 0.1 μCi [^3H]glucose for 2 hours under constant oxygenation. The reaction was terminated by removal of the incubation medium, and cells were washed and scraped off to determine the amounts of [^3H]glucose in cells by scintillation spectrometry. […] N=5-6. […] . […] . To” for “To”
(§2) Both glioblastoma and melanoma cells were plated extremely thinly. Once cells attached, Compound C0105 was added at 0.1, 0.5, 1 and 5 nM, whereas the other compounds were present at 1 and 5 nM in the medium twice daily (6 hours apart) for 4 days. The cells were serum-deprived (glucose deprived) for 2 hours. Cells were then rinsed with 1 ml PBS and glucose uptake was assessed by contacting the cells with [3H]glucose (0.01 uCi/l ml) of Kreb's Ringer for 2 hours. Cells were then rinsed with 1 ml PBS 3 times, scraped off and their glucose contents counted by liquid scintillation spectrophotometry.

[4] = test system: melanoma cells (A2058); assay: [3H]glucose uptake; type: cell-based, human; conditions: C0105 0.1-5 nM, other compounds 1 and 5 nM, twice daily for 4 days
Procedure: as §1, with “FIG. 1A through FIG. 1M illustrate the effects of various FLNA-binding compounds on glucose uptake in glioblastoma, melanoma, breast and pancreatic cancer cell lines, along with appropriate non-cancerous primary cell controls. Cells were grown in the absence or presence of 0.1-5 nM indicated compounds for 4 days. Following brief washes with PBS, cells were serum-deprived for 4 hours and then incubated in oxygenated Kreb's Ringer containing 0.1 μCi [^3H]glucose for 2 hours under constant oxygenation. The reaction was terminated by removal of the incubation medium, and cells were washed and scraped off to determine the amounts of [^3H]glucose in cells by scintillation spectrometry. […] N=5-6. […] . […] . To” for “To”
as §2

[5] = test system: glioblastoma cells (U-87 MG); assay: [3H]glucose uptake; type: cell-based, human; conditions: C0105 0.1-5 nM, other compounds 1 and 5 nM, twice daily for 4 days
Procedure: as §1, with “FIG. 1A through FIG. 1M illustrate the effects of various FLNA-binding compounds on glucose uptake in glioblastoma, melanoma, breast and pancreatic cancer cell lines, along with appropriate non-cancerous primary cell controls. Cells were grown in the absence or presence of 0.1-5 nM indicated compounds for 4 days. Following brief washes with PBS, cells were serum-deprived for 4 hours and then incubated in oxygenated Kreb's Ringer containing 0.1 μCi [^3H]glucose for 2 hours under constant oxygenation. The reaction was terminated by removal of the incubation medium, and cells were washed and scraped off to determine the amounts of [^3H]glucose in cells by scintillation spectrometry. […] N=5-6. […] . […] . To” for “To”
as §2

[6] = test system: mu opiate receptor (MOR); assay: MOR agonist activity using [35S]GTPγS binding assay in striatal membranes; type: biochemical; conditions: for MOR agonist activity ([35S]GTPγS binding), FLNA-Binding Compound as Agonist 1 μM + BFNA: 1 μM compound + 1 μM β-funaltrexamine
Summary of the method: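 Striatal membranes (200 μg) were preincubated 5 min at 30 °C in HEPES pH 7.5 with 100 mM NaCl, 1 mM MgCl2 and 0.5 nM [35S]GTPγS, then 5 min more with 0.1–10 μM compound. Gαo was immunoprecipitated and bound radioactivity counted by scintillation.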

[7] = test system: more than 65 receptors; assay: Standard binding assay on more than 65 receptors; conditions: 10 μM concentration
[8] = FLNA-binding compound 0.01 μM, read-out: Percent Binding Inhibition
[9] = FLNA-binding compound 0.1 μM, read-out: Percent Binding Inhibition
[10] = FLNA-binding compound 1 μM, read-out: Percent Binding Inhibition
[11] = Series C-2, 0.1 μM compound, relative to DAMGO
[12] = Series C-2, 0.1 μM compound, [35S]GTPγS binding to Gαo, striatal membranes
[13] = Series C-2, 1 μM compound + 1 μM β-FNA
[14] = Series C-2, 1 μM compound + β-FNA, relative to DAMGO + BFNA
[15] = Series C-2, 1 μM compound, relative to DAMGO
[16] = Series C-2, 1 μM compound, [35S]GTPγS binding to Gαo, striatal membranes
[17] = read-out: Percent Binding Inhibition, FLNA-binding compound 0.01 μM
[18] = read-out: Percent Binding Inhibition, FLNA-binding compound 0.1 μM
[19] = read-out: Percent Binding Inhibition, FLNA-binding compound 1 μM
[20] = 0.1 μM compound relative to DAMGO
[21] = 1 μM compound + BFNA relative to DAMGO + BFNA
[22] = 1 μM compound relative to DAMGO

Compound	inhibition at 0.01 µM [1, 8]	inhibition at 0.1 µM [1, 9]	inhibition at 1 µM [1, 10]	Glucose utilization [2]	Glucose uptake / glucose content [3]	Glucose utilization [4]	Glucose utilization [5]	% DAMGO (0.1 μM) [6, 11]	MOR agonist activity, percent [35S]GTPγS binding at the stated compound concentration [6, 12]	MOR agonist activity, percent [35S]GTPγS binding at the stated compound concentration [6, 13]	% DAMGO + BFNA [6, 14]	% DAMGO (1 μM) [6, 15]	MOR agonist activity, percent [35S]GTPγS binding at the stated compound concentration [6, 16]	inhibition at 0.01 µM [1, 17]	inhibition at 0.1 µM [1, 18]	inhibition at 1 µM [1, 19]	MOR agonist activity ([35S]GTPγS binding), FLNA-Binding Compound as Agonist 0.1 μM ([6]; 0.1 μM compound)	% DAMGO (0.1 μM) [6, 20]	MOR agonist activity ([35S]GTPγS binding), FLNA-Binding Compound as Agonist 1 μM ([6]; 1 μM compound)	MOR agonist activity ([35S]GTPγS binding), FLNA-Binding Compound as Agonist 1 μM + BFNA [6]	also measured
Cc1ccc(S(=O)(=O)N2CCOC23CCN(CC2CC2)CC3)cc1 [Compound C0134M]	55.7%	60.5%	61.9%	decreased the elevated glucose utilization	no significant inhibition in glucose content	decreased the elevated glucose utilization	decreased the elevated glucose utilization	94.6%	158.5%	46.6%	98.1%	93.3%	207.3%								MOR agonist activity, FLNA-Binding Compound as Agonist 0.1 μM (preliminary study) ([6]; 0.1 μM, average of two runs): 150.7%; MOR agonist activity, FLNA-Binding Compound as Agonist 1 μM + βNFA (preliminary study) ([6]; 1 μM + βNFA, average of two runs): 53.2%; MOR agonist activity, FLNA-Binding Compound as Agonist 1 μM (preliminary study) ([6]; 1 μM, average of two runs): 224.0%
CC(=O)c1ccc(S(=O)(=O)N2CC(CN(C)C)OC23CCN(C)CC3)cc1 (stereo not drawn) [Compound C0108M]				decreased the elevated glucose utilization	no significant inhibition in glucose content	decreased the elevated glucose utilization	decreased the elevated glucose utilization	108.7%	205.6%	76.9%	158.6%	104.1%	258.5%	54.6%	61.4%	68.7%					
CC1CCC(C(C)C)C(OCC(CN2CC(C)OC(C)C2)NCc2ccccc2)C1 (stereo not drawn) [Compound A0033]	46.4%	51.8%	56.5%	decreased the elevated glucose utilization	no significant inhibition in glucose content	decreased the elevated glucose utilization	decreased the elevated glucose utilization										155.8%	79.4%	254.6%	118.2%	% DAMGO + BFNA [6, 21]: 159.9%; % DAMGO (1 μM) [6, 22]: 92.2%
COc1ccc(OCC(O)CN2CCc3ccccc3C2)cc1 (stereo not drawn) [Compound A0053]				decreased the elevated glucose utilization	no significant inhibition in glucose content	decreased the elevated glucose utilization	decreased the elevated glucose utilization							34.8%	40%	46.9%	78.5%	46.5%	118.2%	15.1%	% DAMGO + BFNA [6, 21]: 46.2%; % DAMGO (1 μM) [6, 22]: 47.5%
O=C1CN(Cc2ccccc2)C2(CCN(S(=O)(=O)c3cc(Cl)c(O)c(Cl)c3)CC2)N1 [Compound C0139M]				decreased the elevated glucose utilization	no significant inhibition in glucose content	decreased the elevated glucose utilization	decreased the elevated glucose utilization														Binding to any of more than 65 assayed receptors [7]: no significant binding; % DAMGO (0.1 μM) ([6]; Series C-1, 0.1 μM compound, relative to DAMGO): 106.2%; % DAMGO + BFNA ([6]; Series C-1, 1 μM compound + β-FNA, relative to DAMGO + BFNA): 129.8%; % DAMGO (1 μM) ([6]; Series C-1, 1 μM compound, relative to DAMGO): 102.2%
